The values that follow come from patent US7943793B2, “Optically active organic acidate-bridged dinuclear platinum(II) complex” (Osaka University, priority 2007, dated 2011).

Holding throughout (type): cell-based
The test system of experiment [1] is gastric cancer cell MKN-7. As to the kind of experiment: Cancer growth inhibitory activity, gastric cancer cell MKN-7. The following applies: for Cancer growth inhibitory activity (average log GI50): gastric cancer cell MKN-7.
Experiment [2] concerns renal cancer cell RXF631L. As to the kind of experiment: Cancer growth inhibitory activity, renal cancer cell RXF631L. Particulars: for Cancer growth inhibitory activity (average log GI50): renal cancer cell RXF631L.
The next experiment deals with colon cancer cell HT-29. As to the kind of experiment: Cancer growth inhibitory activity, colon cancer cell HT-29. The following applies: for Cancer growth inhibitory activity (average log GI50): colon cancer cell HT-29; for cancer growth inhibitory activity relative to oxaliplatin: colon cancer cells, stronger than oxaliplatin.
The next experiment has as its system lung cancer cell DMS273. Kind of experiment: Cancer growth inhibitory activity, lung cancer cell DMS273. The following applies: for Cancer growth inhibitory activity (average log GI50): lung cancer cell DMS273; for cancer growth inhibitory activity relative to oxaliplatin: lung cancer cells, higher than oxaliplatin.
A further experiment has as its system 39 kinds of cancer cells. As to the kind of experiment: In vitro cancer growth inhibitory activity, sulforhodamine B, panel of 39 cancer cell lines. The following applies: average over 39 kinds of cancer cells, 2 days culture with sample. The method, then:
The in vitro cancer growth inhibitory activity was assessed according to the method described in Jpn J Cancer Chemother, 24, 129 (1997) and Cancer Chemothr. Pharmacol., 52 Suppl 1, S74-79 (2003). Namely, a total of 39 different kinds of cancer cells at logarithmic growth phase were separately seeded into wells of 96 well plates, and incubated at 37° C. for 1 day. The cancer cells used were 5 kinds of breast cancer cells (HBC-4, BSY-1, HBC-5, MCF-7, MDA-MB-231), 6 kinds of glioma cancer cells (U251, SF-268, SF-295, SF-539, SNB-75, SNB-78), 5 kinds of colon cancer cells (HCC2998, KM-12, HT-29, HCT-15, HCT-116), 7 kinds of lung cancer cells (NCI-H23, NCL-H226, NCL-H522, NCL-H460, A549, DMS273, DMS114), 1 kind of melanoma cell (LOX-IMVI), 5 kinds of ovarian cancer cells (OVCAR-3, OVCAR-4, OVCAR-5, OVCAR-8, SK-OV-3), 2 kinds of renal cancer cells (RXF-631L, ACHN), 6 kinds of gastric cancer cells (St-4, MKN1, MKN7, MKN28, MKN45, MKN74), and 2 kinds of prostate cancer cells (DU-145, PC-3). Each sample solution was added to the wells on the following day, and culture was continued at 37° C. for another 2 days. Then, the degree of cell growth was determined by the colorimetric measurement using sulforhodamine B. The cancer growth inhibitory activity was assessed based on the average log GI50 (GI50 indicates the concentration required to inhibit 50% of cell growth) against 39 kinds of cancer cells.

Consider `N[C@@H]1CCCC[C@H]1N.N[C@@H]1CCCC[C@H]1N.O.O.O.O.O=C([O-])[C@@H](O)[C@H](O)C(=O)[O-].O=[N+]([O-])[O-].[Pt+2].[Pt+2]` (relative stereo) [[{Pt(R,R-dach)}2(μ-D-tartH)]NO3•4H2O, D-tartrate-bridged dinuclear 1R,2R-1,2-trans-cyclohexanediamine platinum(II) complex nitrate], for which the “Cancer growth inhibitory activity (average log GI50)” value in experiment [1] is reported as −6.02; in experiment [2], −6.03; in the experiment on colon cancer cell HT-29, −5.96; with lung cancer cell DMS273 it was −7.46. The “cancer growth inhibitory activity relative to oxaliplatin” value in experiment [1] (gastric cancer cells, stronger than oxaliplatin) is recorded as “about 10 times”; in experiment [2] (renal cancer cells, stronger than oxaliplatin) it was “about 100 times”; in the experiment with colon cancer cell HT-29, “about 10 times”; with lung cancer cell DMS273 it was “about 20 times”.

With `O=C1[O][Pt-2]2([NH2+]C3CCCC[C@H]3[NH2+]2)[O]C1=O` (stereo partly drawn) [Oxaliplatin, oxalato(1R,2R-1,2-cyclohexanediamine)platinum(II), reference compound], the “Cancer growth inhibitory activity (average log GI50)” value is recorded as −4.68 in experiment [1]; −4.13 in experiment [2]; −4.91 in the experiment on colon cancer cell HT-29; −5.03 with 39 kinds of cancer cells; −6.06 with lung cancer cell DMS273.

For the compound “L-tartrate-bridged dinuclear 1R,2R-1,2-trans-cyclohexanediamine platinum(II) complex nitrate [[{Pt(R,R-dach)}2(μ-L-tartH)]NO3•4H2O]”, the “Cancer growth inhibitory activity (average log GI50)” value in experiment [1] was −4.98; in experiment [2], −4.92; with colon cancer cell HT-29, −7.00; in the experiment on 39 kinds of cancer cells, −5.99; in the experiment on lung cancer cell DMS273 it was −7.31. In addition, the “cancer growth inhibitory activity relative to oxaliplatin” value is on record as “about 100 times” in the experiment with colon cancer cell HT-29 and “about 20 times” in the experiment on lung cancer cell DMS273.

Regarding “L-tartrate-bridged dinuclear 1S,2S-1,2-trans-cyclohexanediamine platinum(II) complex nitrate [[{Pt(S,S-dach)}2(μ-L-tartH)]NO3•4H2O]”, the “Cancer growth inhibitory activity (average log GI50)” value in the experiment on 39 kinds of cancer cells is −5.36.
